Measurements as given in patent US7014839B2, “Light imaging contrast agents” (Amersham Health AS, priority 1995, dated 2006).
Marks after values point to notes of the source that are not given here.

How the values were obtained:
[1] = Average particle size of milled nanoparticle suspensions (light scattering); details: for average particle size: light scattering
Experimental: WIN 70146 (an iodinated X-ray contrast agent prepared according to Example 23 below) was added to each of 3×1.5 oz brown glass bottles containing approximately 12 ml of zirconium silicate, 1.1 mm diameter beads in an amount sufficient to be 15% (wt/vol %) of the final suspension. Bottle A was also made 3% (wt/vol %) Pluronic F-68 while bottle B was made 3% (wt/vol %)) Pluronic F-108 and bottle C was made 3% (wt/vol %) Tetronic T-908. The resulting suspensions were milled at approx 150 rpm for a total of 9 days with estimates of particle size determined at various intervals as detailed below.
WIN 70146 was milled with 1.1 mm diameter zirconium silicate beads for 3 days under aseptic conditions. The concentration of this agent was 15% WIN 70146 in the presence of 4% Pluronic F-108. No additional salts or surfactants were added.
WIN 70146 was milled with 1.1 mm diameter zirconium silicate beads in the presence of Pluronic F-108 for 3 days. […] At this point, sterile PEG 400 was added to the suspension such that at completion, the formulation contained 15% (wt/vol %) WIN 70146, 3% (wt/vol %) Pluronic F-108 and 10% PEG 400.
(§1) This suspension was then diluted in water to various levels listed below. The percent of incident light transmitted was then determined for each suspension at several wavelengths (see below). The suspensions were then dissolved by addition of methanol and examined for percent transmitted light against an equivalent solvent blank.
A formulation of WIN 70177 (an iodinated X-ray contrast agent prepared according to Example 24) was prepared as 15 gm of WIN 70177/100 ml of suspension and 4.25-gm of Pluronic F108/100 ml of suspension and 10 gm of PEG 400/100 ml of suspension.
A formulation of WIN 67722 (an iodinated X-ray contrast agent as described in U.S. Pat. No. 5,322,679) was prepared as in Example 1 using 3% Pluronic F108 and 15% PEG 1450.
as §1

[2] = Percent of incident light transmitted by diluted nanoparticle suspension and by methanol-dissolved agent; type: physicochemical; details: for % T suspension 632 nm / % T suspension 700 nm / % T suspension 820 nm / % T suspension 800 nm: nanoparticle suspension
From the text: The results are given below.

[3] = Absorbance vs wavelength of dissolved and nanoparticle agent; type: physicochemical; details: above 600 nm; for Absorbance vs wavelength of dissolved agent: dissolved (methanol); for Absorbance vs wavelength of nanoparticle agent: particulate suspension
[4] = system: mice
Experimental: WIN 70146 was prepared as in Example 10 and injected into the tail vein of mice at doses of 3 ml/kg, 15 ml/kg, and 30 ml/kg (ie. 0.45 gm/kg, 2.25 gm/kg and 4.5 gm/kg).

[5] = Stability testing in fresh rat plasma; type: physicochemical; details: nanoparticle suspension, F108/PEG 400
Experimental: (§2) A formulation of WIN 70177 (an iodinated X-ray contrast agent prepared according to Example 24) was prepared as 15 gm of WIN 70177/100 ml of suspension and 4.25-gm of Pluronic F108/100 ml of suspension and 10 gm of PEG 400/100 ml of suspension. The suspension was milled for 5 days after which the average particle size was determined by light scattering to be about 235 nm.

[6] = Stability testing in simulated gastric fluid; type: physicochemical; details: nanoparticle suspension, F108/PEG 400
Experimental: as §2

[7] = Residence within the vasculature after injection; type: in vivo; details: nanoparticles
Experimental: WIN 72115 was designed to be excited with incident radiation from an Argon Ion laser (in the green, near 514 nm) and emit light at wavelengths above that value. Thus, after injection, illumination of the patient with green light would stimulate emission of light of a slightly different wavelength that could be used for diagnostic purposes. The key features of this agent are that it can be prepared as nanoparticles, remain within the vasculature for greater than 15 minutes, provide both scattering and fluorescence contrast for light imaging. In place of WIN 72115, the photolabelled agent of Example 22 below may be used.

[8] = 3% Pluronic F108, 15% PEG 1450, milled 3 days, Coulter N4MD
[9] = methanol added, 0.150%, not fully dissolved
[10] = methanol added, 0.300%, not fully dissolved

SMILES	% T solution 632 nm ([2]; dissolved by methanol, 0.015%)	% T solution 700 nm ([2]; dissolved by methanol, 0.015%)	% T solution 632 nm ([2]; dissolved by methanol, 0.0375%)	% T solution 700 nm ([2]; dissolved by methanol, 0.0375%)	% T solution 632 nm ([2]; dissolved by methanol, 0.075%)	% T solution 700 nm ([2]; dissolved by methanol, 0.075%)	% T solution 632 nm [2, 9]	% T solution 700 nm [2, 9]	% T solution 632 nm [2, 10]	% T solution 700 nm [2, 10]	% T suspension 632 nm ([2]; 0.015%)	% T suspension 700 nm ([2]; 0.015%)	% T suspension 632 nm ([2]; 0.0375%)	% T suspension 700 nm ([2]; 0.0375%)	% T suspension 632 nm ([2]; 0.075%)	% T suspension 700 nm ([2]; 0.075%)	% T suspension 632 nm ([2]; 0.150%)	% T suspension 700 nm ([2]; 0.150%)	% T suspension 632 nm ([2]; 0.300%)	% T suspension 700 nm ([2]; 0.300%)	further results
CCOC(=O)CCCCCOC(=O)c1c(I)c(NC(C)=O)c(I)c(NC(C)=O)c1I [WIN 67722]	99.9%	99.9%	100.2%	100.2%	100.1%	100.2%	48.2* %	55.3* %	1.3* %	3.5* %	47.9%	57.1%	20.5%	29.9%	4.8%	9.9%	0.2%	1.0%	0.0%	0.0%	average diameter after autoclaving ([1]; 3% Pluronic F108, 15% PEG 1450): 214 nm; particle size [1, 8]: 213 nm; particle size, small fraction [1, 8]: 537 nm; % T solution 820 nm ([2]; dissolved by methanol, 0.015%): 100.6%; % T solution 820 nm ([2]; dissolved by methanol, 0.0375%): 100.4%; % T solution 820 nm ([2]; dissolved by methanol, 0.075%): 100.4%; % T solution 820 nm [2, 9]: 65.5* %; % T solution 820 nm [2, 10]: 10.7* %; % T suspension 820 nm ([2]; 0.015%): 69.2%; % T suspension 820 nm ([2]; 0.0375%): 45.6%; % T suspension 820 nm ([2]; 0.075%): 22.1%; % T suspension 820 nm ([2]; 0.150%): 4.9%; % T suspension 820 nm ([2]; 0.300%): 0.2%; Absorbance vs wavelength of dissolved agent [3]: has virtually no absorbance at all even at 5 times the concentration; Absorbance vs wavelength of nanoparticle agent [3]: provides an exponential drop in absorbance with wavelength
CCCCC(OC(=O)c1c(I)c(NC(C)=O)c(I)c(NC(C)=O)c1I)C(=O)OCC (centres unmarked) [WIN 70146, Benzoic Acid, 3,5-bis(acetylamino)-2,4,6-triiodo-1-(ethoxycarbonyl)pentyl ester]	100.4%	100.3%	99.9%	99.9%	99.9%	99.8%	41.4* %	51.9* %	1.2* %	4.0* %	54.7%	64.5%	25.4%	36.6%	7.7%	15.4%	0.5%	1.9%	0.0%	0.1%	average diameter after autoclaving ([1]; 4.25% F108/10% PEG 400): 228 nm; average particle size ([1]; 15% WIN 70146, 4% Pluronic F-108, milled 3 days): 162 nm; final particle size after autoclaving ([1]; 15% agent, 3% Pluronic F-108, 10% PEG 400, 121 degrees C. for 20 min): 248 nm; final particle size after milling ([1]; Pluronic F-108, milled 3 days, before PEG 400 and autoclaving): 235 nm; Stability to heat and shelf time of nanoparticle suspension ([1]; in F108 and T908, autoclaving, time on the shelf): excellent stability to heat (autoclaving) and time on the shelf; % T solution 820 nm ([2]; dissolved by methanol, 0.015%): 100.5%; % T solution 820 nm ([2]; dissolved by methanol, 0.0375%): 99.9%; % T solution 820 nm ([2]; dissolved by methanol, 0.075%): 99.9%; % T solution 820 nm [2, 9]: 66.2* %; % T solution 820 nm [2, 10]: 13.5* %; % T suspension 820 nm ([2]; 0.015%): 77.0%; % T suspension 820 nm ([2]; 0.0375%): 53.8%; % T suspension 820 nm ([2]; 0.075%): 31.8%; % T suspension 820 nm ([2]; 0.150%): 8.6%; % T suspension 820 nm ([2]; 0.300%): 0.8%; Absorbance vs wavelength of dissolved agent [3]: does not show any evidence of light absorbance from 600 to 800 nm; Absorbance vs wavelength of nanoparticle agent [3]: shows a classic absorbance decay due to scattering of the incident light; Untoward effects ([4]; tail vein, 3, 15 and 30 ml/kg (0.45, 2.25, 4.5 gm/kg), 7 days): No untoward effects were noted; Gross observation after sacrifice ([4]; tail vein, 3-30 ml/kg, after 7 days): did not reveal any obvious lesions or disfigurations
CC(=O)Nc1c(I)c(NC(C)=O)c(I)c(C(=O)OCC(C(=O)OC(C)C)C(=O)OC(C)C)c1I [WIN 70177, Propanedioic Acid, [[3,5-bis(acetylamino)-2,4,6-triiodobenzoyl]oxy]methyl-bis(1-methylethyl)ester]	102.2%	101.9%	102.3%	101.9%	100.9%	100.8%	59.5* %	67.8* %	7.4* %	14.4* %	53.3%	62.8%	34.6%	45.7%	25.8%	36.8%	6.7%	13.6%	0.1%	0.6%	average diameter after autoclaving ([1]; 4.25% F108/10% PEG 400): 236 nm; average particle size ([1]; 15 gm agent, 4.25 gm Pluronic F108, 10 gm PEG 400 per 100 ml, milled 5 days): about 235 nm; % T solution 800 nm ([2]; dissolved by methanol, 0.015%): 101.8%; % T solution 800 nm ([2]; dissolved by methanol, 0.0375%): 101.8%; % T solution 800 nm ([2]; dissolved by methanol, 0.075%): 101.0%; % T solution 800 nm [2, 9]: 77.0* %; % T solution 800 nm [2, 10]: 26.8* %; % T suspension 800 nm ([2]; 0.015%): 73.1%; % T suspension 800 nm ([2]; 0.0375%): 59.1%; % T suspension 800 nm ([2]; 0.075%): 51.1%; % T suspension 800 nm ([2]; 0.150%): 26.3%; % T suspension 800 nm ([2]; 0.300%): 3.2%; Aggregation in fresh rat plasma [5]: did not show any aggregation; Aggregation in simulated gastric fluid [6]: did not show any aggregation; Absorbance vs wavelength of dissolved agent [3]: has virtually no absorbance at all even at 5 times the concentration; Absorbance vs wavelength of nanoparticle agent [3]: provides an exponential drop in absorbance with wavelength
CCOC(=O)c1c(I)c(NS(=O)(=O)c2cccc3c(N(C)C)cccc23)c(I)c(N(CC)C(C)=O)c1I [WIN 72115, 3-(N-Acetyl-N-ethylamino)-5-[(5-dimethylamino-1-naphthylsulfonyl)amino]-2,4,6-triiodobenzoic Acid Ethyl Ester]																					average particle size ([1]; 15 gm agent and 3 gm Pluronic F108 per 100 ml): 225 nm; melting point: 238 to 240 °C; Time remaining within the vasculature [7]: greater than 15 minutes
